{"source": "paper PMC3901045", "about": "(Lab on a chip, 2013)", "target": "T1, cyt P450 1A1 (Homo sapiens, UniProt P04798)", "T1 sequence (P04798 1-512)": "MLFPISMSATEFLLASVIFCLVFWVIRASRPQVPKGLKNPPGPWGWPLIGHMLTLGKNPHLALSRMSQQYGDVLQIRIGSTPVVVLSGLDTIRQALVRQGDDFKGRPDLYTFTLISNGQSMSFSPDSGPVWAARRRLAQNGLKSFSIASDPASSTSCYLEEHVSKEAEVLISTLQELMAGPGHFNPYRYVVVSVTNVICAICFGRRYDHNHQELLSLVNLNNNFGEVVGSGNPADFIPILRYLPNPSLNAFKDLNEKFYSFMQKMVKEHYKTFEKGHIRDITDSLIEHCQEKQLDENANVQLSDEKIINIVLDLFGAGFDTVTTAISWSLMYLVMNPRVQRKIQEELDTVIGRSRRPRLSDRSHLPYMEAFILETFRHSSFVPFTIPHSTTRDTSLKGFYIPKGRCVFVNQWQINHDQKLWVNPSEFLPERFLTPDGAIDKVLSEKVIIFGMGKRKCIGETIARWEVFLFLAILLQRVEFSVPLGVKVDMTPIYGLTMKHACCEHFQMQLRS", "type": "biochemical", "data": [{"smiles": "COc1ccc(/C=C/c2cc(O)cc(O)c2)cc1O", "note": "[rhapontigenin]", "values": [{"measurement": "IC50", "result": "32 ± 1", "unit": "nM"}]}]}
